Where “and” joins values, the source holds several entries; their conditions need not be identical. Equal entries are not always repeated. Inconclusive results and toxic doses are left out. Rule as the data show it: active = T/C of 150% or more; inactive = T/C below 125%.
Tested on: L1210 leukemia ip in BDF1 mice, survival T/C
Test: NCI In Vivo Anticancer Drug Screen. Data for tumor model L1210 Leukemia (intraperitoneal) in B6D2F1 (BDF1) mice
Details: endpoint: mean survival time, higher = longer survival
Procedure, shortened: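 Value reflects the ratio of survival in compound-treated mice to survival in vehicle-treated controls, with both groups carrying the same transplanted tumor.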

[1] = dose: 100.0 mg/kg/injection, schedule: Q04DX003 (ip), vehicle: Klucel (hydroxypropylcellulose) (HPC)
[2] = dose: 200.0 mg/kg/injection, schedule: Q04DX003 (ip), vehicle: Klucel (hydroxypropylcellulose) (HPC)
[3] = dose: 400.0 mg/kg/injection, schedule: Q04DX003 (ip), vehicle: Klucel (hydroxypropylcellulose) (HPC)
[4] = dose: 100.0 mg/kg/injection, schedule: Q01DX009 (ip), vehicle: saline with Tween-80
[5] = dose: 100.0 mg/kg/injection, schedule: Q04DX003 (ip), vehicle: saline with Tween-80
[6] = dose: 200.0 mg/kg/injection, schedule: Q01DX009 (ip), vehicle: saline with Tween-80
[7] = dose: 200.0 mg/kg/injection, schedule: Q04DX003 (ip), vehicle: saline with Tween-80
[8] = dose: 400.0 mg/kg/injection, schedule: Q01DX009 (ip), vehicle: saline with Tween-80
[9] = dose: 400.0 mg/kg/injection, schedule: Q04DX003 (ip), vehicle: saline with Tween-80
[10] = dose: 100.0 mg/kg/injection, schedule: Q01DX001 (ip), vehicle: saline
[11] = dose: 200.0 mg/kg/injection, schedule: Q01DX001 (ip), vehicle: saline
[12] = dose: 400.0 mg/kg/injection, schedule: Q01DX001 (ip), vehicle: saline
[13] = dose: 100.0 mg/kg/injection, schedule: Q01DX009 (ip), vehicle: Klucel (hydroxypropylcellulose) (HPC)
[14] = dose: 200.0 mg/kg/injection, schedule: Q01DX009 (ip), vehicle: Klucel (hydroxypropylcellulose) (HPC)
[15] = dose: 400.0 mg/kg/injection, schedule: Q01DX009 (ip), vehicle: Klucel (hydroxypropylcellulose) (HPC)
[16] = dose: 100.0 mg/kg/injection, schedule: Q01DX009 (ip), vehicle: saline
[17] = dose: 100.0 mg/kg/injection, schedule: Q04DX003 (ip), vehicle: saline
[18] = dose: 200.0 mg/kg/injection, schedule: Q01DX009 (ip), vehicle: saline
[19] = dose: 200.0 mg/kg/injection, schedule: Q04DX003 (ip), vehicle: saline
[20] = dose: 400.0 mg/kg/injection, schedule: Q01DX009 (ip), vehicle: saline
[21] = dose: 400.0 mg/kg/injection, schedule: Q04DX003 (ip), vehicle: saline
[22] = dose: 25.0 mg/kg/injection, schedule: Q01DX009 (ip), vehicle: saline
[23] = dose: 50.0 mg/kg/injection, schedule: Q01DX009 (ip), vehicle: saline
[24] = dose: 100.0 mg/kg/injection, schedule: Q04DX002 (ip), vehicle: saline with Tween-80
[25] = dose: 100.0 mg/kg/injection, schedule: Q01DX001 (ip), vehicle: carboxymethylcellulose (CMC)
[26] = dose: 200.0 mg/kg/injection, schedule: Q01DX001 (ip), vehicle: carboxymethylcellulose (CMC)
[27] = dose: 400.0 mg/kg/injection, schedule: Q01DX001 (ip), vehicle: carboxymethylcellulose (CMC)

Measured: T/C

CCCCN(CCCC)C(=S)[S-].CCCCN(CCCC)C(=S)[S-].[Zn]
inactive: dose: 37.5 mg/kg/injection, schedule: Q01DX009 (ip), vehicle: saline 90 % of control | dose: 75.0 mg/kg/injection, schedule: Q01DX001 (ip), vehicle: saline 88 % of control | dose: 75.0 mg/kg/injection, schedule: Q01DX009 (ip), vehicle: saline 90 % of control | dose: 75.0 mg/kg/injection, schedule: Q04DX003 (ip), vehicle: saline 98 % of control | dose: 150.0 mg/kg/injection, schedule: Q01DX001 (ip), vehicle: saline 93 % of control | dose: 150.0 mg/kg/injection, schedule: Q01DX009 (ip), vehicle: saline 86 % of control | dose: 150.0 mg/kg/injection, schedule: Q04DX003 (ip), vehicle: saline 87 % of control | dose: 300.0 mg/kg/injection, schedule: Q01DX001 (ip), vehicle: saline 89 % of control | dose: 300.0 mg/kg/injection, schedule: Q04DX003 (ip), vehicle: saline 93 % of control

CCCCCCCCCCCCCCCCc1c(C)ncn(C)c1=O
inactive: [1] 98 % of control | [2] 101 % of control | [3] 95 % of control

CCOC(=O)CN=CC1CCC=CO1 (centres undefined)
inactive: [4] 97 % of control | [5] 93 % of control | [6] 103 % of control | [7] 95 % of control | [8] 108 % of control | [9] 93 % of control

COC1=C2CCCCC2=[N+]2CCc3ccccc3C2C1 (centres undefined)
inactive: dose: 100.0 mg/kg/injection, schedule: Q01DX001 (ip), vehicle: Klucel (hydroxypropylcellulose) (HPC) 93 % of control

O=[N+]([O-])c1ccc2c(c1)/C(=N/O)CCC2
inactive: [4] 110 % of control | [1] 96 % of control | [6] 92 % of control | [2] 91 % of control | [8] 90 % of control | [3] 104 % of control

COc1ccc(-c2oc3cc(OC)ccc3c(=O)c2O)cc1
inactive: dose: 50.0 mg/kg/injection, schedule: Q01DX001 (ip), vehicle: saline 106 % of control | [10] 98 % of control | [11] 104 % of control | [12] 98 % of control

CCCCCCCCC(C)c1ccccc1O (centres undefined)
inactive: [13] 104 % of control | [14] 101 % of control | [15] 112 % of control

Cc1nc(Cl)ncc1N
inactive: [10] 100 % of control | [11] 98 % of control | [12] 98 % of control

CC(=O)OC12C=CC(C(C)=C1)C1C(=O)C=CC(=O)C12 (centres undefined)
inactive: [10] 103 % of control | [16] 98 % of control | [17] 103 % of control | [11] 97 % of control | [18] 89 % of control | [19] 103 % of control | [12] 97 % of control | [20] 90 % of control | [21] 87 % of control

Clc1ccc(COC(Cn2ccnc2)c2ccc(Cl)cc2Cl)cc1 (centres undefined)
inactive: dose: 25.0 mg/kg/injection, schedule: Q04DX002 (ip), vehicle: DMSO 93 % of control | dose: 50.0 mg/kg/injection, schedule: Q04DX002 (ip), vehicle: DMSO 93 % of control | dose: 100.0 mg/kg/injection, schedule: Q04DX002 (ip), vehicle: DMSO 97 % of control

CCOC(=O)CNC(=O)CNC(=O)CCCCSc1ncnc2nc[nH]c12
inactive: [22] 110 % of control | [23] 98 % of control | dose: 50.0 mg/kg/injection, schedule: Q01DX009 (oral), vehicle: saline 104 % of control | [16] 103 % of control | dose: 100.0 mg/kg/injection, schedule: Q01DX009 (oral), vehicle: saline 90 % of control | [18] 101 % of control | dose: 200.0 mg/kg/injection, schedule: Q01DX009 (oral), vehicle: saline 106 % of control | [20] 100 % of control | dose: 400.0 mg/kg/injection, schedule: Q01DX009 (oral), vehicle: saline 93 % of control | dose: 800.0 mg/kg/injection, schedule: Q01DX009 (ip), vehicle: saline 115 % of control | dose: 800.0 mg/kg/injection, schedule: Q01DX009 (oral), vehicle: saline 97 % of control

CCCCCP(=O)(O)O
inactive: dose: 100.0 mg/kg/injection, schedule: Q04DX002 (ip), vehicle: saline 92 % of control | dose: 200.0 mg/kg/injection, schedule: Q04DX002 (ip), vehicle: saline 99 % of control

COc1cc(/C=N/NC(=O)c2ccccc2OC)ccc1O
inactive: [13] 97 % of control | [14] 98 % of control | [15] 94 % of control

BrCCC[CH2][Sn]([c]1ccccc1)([c]1ccccc1)[c]1ccccc1
inactive: [23] 100 % of control | [16] 100 % of control | [18] 100 % of control

COC(=O)C(Br)C(Br)c1ccc(OC)c(OC)c1 (centres undefined)
inactive: [1] 96 % of control | [2] 101 % of control | [3] 96 % of control

CN(C)CCC(C=O)(CCN(C)C)c1cccc2ccccc12
inactive: dose: 25.0 mg/kg/injection, schedule: Q04DX002 (ip), vehicle: saline with Tween-80 116 % of control | dose: 50.0 mg/kg/injection, schedule: Q04DX002 (ip), vehicle: saline with Tween-80 94 % of control | [24] 94 % of control

CC(C)CCCCCOC(N)=O
inactive: [13] 96 % of control | [14] 103 % of control | [15] 102 % of control

Cc1cc(C)c(NC(=S)NC(=O)C(C)Oc2ccccc2)c(C)c1 (centres undefined)
inactive: dose: 100.0 mg/kg/injection, schedule: Q01DX001 (ip), vehicle: saline with Tween-80 97 % of control | [4] 96 % of control and 100 % of control | [24] 101 % of control and 104 % of control | [5] 93 % of control | dose: 200.0 mg/kg/injection, schedule: Q01DX001 (ip), vehicle: saline with Tween-80 97 % of control | [6] 97 % of control and 92 % of control | dose: 200.0 mg/kg/injection, schedule: Q04DX002 (ip), vehicle: saline with Tween-80 97 % of control and 110 % of control | [7] 93 % of control | dose: 400.0 mg/kg/injection, schedule: Q01DX001 (ip), vehicle: saline with Tween-80 103 % of control | [8] 102 % of control | dose: 400.0 mg/kg/injection, schedule: Q04DX002 (ip), vehicle: saline with Tween-80 93 % of control and 121 % of control | [9] 93 % of control

O=C1/C(=C/c2ccco2)CCC2CC3(CCC12)OCCO3 (centres undefined)
inactive: [16] 116 % of control | [17] 92 % of control | [18] 102 % of control | [19] 97 % of control | [20] 98 % of control | [21] 94 % of control

c1cc2c3c(cccc3c1)-c1nc3ccccc3nc1-2
inactive: dose: 50.0 mg/kg/injection, schedule: Q01DX Z (ip), vehicle: methylcellulose (MC) 100 % of control | [25] 94 % of control | dose: 100.0 mg/kg/injection, schedule: Q01DX Z (ip), vehicle: methylcellulose (MC) 98 % of control | dose: 125.0 mg/kg/injection, schedule: Q01DX Z (ip), vehicle: methylcellulose (MC) 102 % of control | [26] 100 % of control | [27] 88 % of control

N#Cc1nn(C2OC(CO)C(O)C2O)c2ncnc(N)c12 (centres undefined)
inactive: [22] 110 % of control | dose: 50.0 mg/kg/injection, schedule: Q01DX005 (ip), vehicle: saline 117 % of control | [23] 114 % of control | dose: 100.0 mg/kg/injection, schedule: Q01DX005 (ip), vehicle: saline 97 % of control

Cc1sc(Cc2ccccc2)nc1-c1ccc(N=Cc2ccc(N(CCCl)CCCl)cc2)cc1
inactive: [25] 104 % of control | [26] 98 % of control | [27] 95 % of control

O=C(Nc1cc([N+](=O)[O-])ccc1F)N(C1CCCCC1)C1CCCCC1
inactive: [1] 87 % of control | [2] 96 % of control | [3] 104 % of control

Source: PubChem BioAssay AID248 (DTP/NCI, 2004)
